Data taken from US10766865B2, “PKM2 modulators and methods for their use” (TOLERO PHARMACEUTICALS, INC., priority 2012, dated 2020).

Target: PKM2 (Homo sapiens, UniProt P14618)
Test: PKM2 Biochemical Assay
Conditions: not given

Chain of PKM2 (P14618 whole entry): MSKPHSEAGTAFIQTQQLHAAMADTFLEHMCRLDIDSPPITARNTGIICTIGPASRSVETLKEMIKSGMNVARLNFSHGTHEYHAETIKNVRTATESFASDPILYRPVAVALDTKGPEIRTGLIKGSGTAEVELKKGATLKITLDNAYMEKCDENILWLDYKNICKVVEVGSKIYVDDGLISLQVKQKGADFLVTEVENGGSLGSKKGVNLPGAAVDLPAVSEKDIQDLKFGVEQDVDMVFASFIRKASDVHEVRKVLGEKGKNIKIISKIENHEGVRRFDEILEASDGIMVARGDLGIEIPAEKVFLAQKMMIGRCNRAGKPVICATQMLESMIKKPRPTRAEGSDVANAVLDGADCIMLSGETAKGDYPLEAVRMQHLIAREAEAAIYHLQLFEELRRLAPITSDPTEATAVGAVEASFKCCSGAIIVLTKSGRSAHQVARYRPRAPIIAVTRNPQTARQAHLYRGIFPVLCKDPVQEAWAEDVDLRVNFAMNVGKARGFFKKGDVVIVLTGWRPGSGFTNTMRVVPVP

AC50 [nM] | SMILES
148 | CCN1CCCC1CN(Cc1ccccc1Cl)C(=O)c1cc(C(F)(F)F)n[nH]1 (stereo not drawn) [Example 231, N-(2-chlorobenzyl)-N-((1-ethylpyrrolidin-2-yl)methyl)-3-(trifluoromethyl)-1H-pyrazole-5-carboxamide]

Same assay, conditions: % maximum response in a biochemical assay as compared with Fructose 1,6-bisphosphate

SMILES | Max. Resp. [%]
O=C(c1cc(C(F)(F)F)n[nH]1)N(CCC(F)(F)F)Cc1ccc(O)cc1F [Example 130, N-(2-fluoro-4-hydroxybenzyl)-3-(trifluoromethyl)-N-(3,3, trifluoropropyl)-1H-pyrazole-5-carboxamide] | 100
O=C(c1cc(C(F)(F)F)n[nH]1)N(CCN1CCS(=O)(=O)CC1)Cc1ccccc1Cl [Example 107] | 85
CC1CCCN(CCN(Cc2cc(N)ccc2Cl)C(=O)c2cc(C(F)(F)F)n[nH]2)C1 (stereo not drawn) [Example 200, N-(5-amino-2-chlorobenzyl)-3-(trifluoromethyl)-N-(2-(3-methylpiperidin-1-yl)ethyl)-1H-pyrazole-5-carboxamide] | 100
CC[C@](C)(N)C(=O)Oc1ccc(CN(CC2CCC2)C(=O)c2cc(Cl)n[nH]2)c(F)c1 [Example 115, (S)-4-((3-chloro-N-(cyclobutylmethyl)-1H-pyrazole-5-carboxamido)methyl)-3-fluorophenyl 2-amino-2-methylbutanoate] | 104
O=C(c1cc(C(F)(F)F)n[nH]1)N(CCC1CCNCC1)Cc1ccccc1F [Example 98] | 56
O=C(c1cc(C(F)(F)F)n[nH]1)N(Cc1ccccc1Cl)CC1CCC1 [Example 127, N-(2-chlorobenzyl)-N-(cyclobutylmethyl)-3-(trifluoromethyl)-1H-pyrazole-5-carboxamide] | 100
O=C(c1cc(C(F)(F)F)n[nH]1)N(CCN1CCCCC1)Cc1c(Cl)cccc1Cl [Example 180, N-(2,6-dichlorobenzyl)-3-(trifluoromethyl)-N-(2-(piperidin-1-yl)ethyl)-1H-pyrazole-5-carboxamide] | 100
O=C(c1cc(C(F)(F)F)n[nH]1)N(CCN1CCCC1)Cc1cccc2nc[nH]c12 [Example 163, N-((1H-benzo[d]imidazol-7-yl)methyl)-3-(trifluoromethyl)-N-(2-(pyrrolidin-1-yl)ethyl)-1H-pyrazole-5-carboxamide] | 100
CCN1CCCC1CN(Cc1ccccc1Cl)C(=O)c1cc(C(F)(F)F)n[nH]1 (stereo not drawn) [Example 231, N-(2-chlorobenzyl)-N-((1-ethylpyrrolidin-2-yl)methyl)-3-(trifluoromethyl)-1H-pyrazole-5-carboxamide] | 65
O=C(c1cc(C(F)(F)F)n[nH]1)N(CCN1CCCC1)Cc1c(Cl)cccc1Cl [Example 178, N-(2,6-dichlorobenzyl)-3-(trifluoromethyl)-N-(2-(pyrrolidin-1-yl)ethyl)-1H-pyrazole-5-carboxamide] | 100
CCOCCCN(Cc1ccccc1Cl)C(=O)c1cc(C(F)(F)F)n[nH]1 [Example 38] | 47
Nc1ccccc1CN(CCC1CCS(=O)(=O)C1)C(=O)c1cc(C(F)(F)F)n[nH]1 (stereo not drawn) [Example 77] | 43
O=C(c1cc(C2CC2)n[nH]1)N(Cc1ccc(O)cc1F)CC1CCC1 [Example 246] | 85
O=C(c1cc(C(F)(F)F)n[nH]1)N(CCN1CCCC1)Cc1cccc2[nH]cc(F)c12 [Example 206, N-((3-fluoro-1H-indol-4-yl)methyl)-3-(trifluoromethyl)-N-(2-(pyrrolidin-1-yl)ethyl)-1H-pyrazole-5-carboxamide] | 100
CN(C)CCN(Cc1ccccc1Cl)C(=O)c1cc(C(F)(F)F)n[nH]1 [Example 187, N-(2-chlorobenzyl)-N-(2-(dimethylamino)ethyl)-3-(trifluoromethyl)-1H-pyrazole-5-carboxamide] | 100
O=C(c1cc(C(F)(F)F)n[nH]1)N(CCN1CCCC1)Cc1c(F)cccc1Cl [Example 177, N-(2-chloro-6-fluorobenzyl)-3-(trifluoromethyl)-N-(2-(pyrrolidin-1-yl)ethyl)-1H-pyrazole-5-carboxamide] | 100
COC1CCCN(CCN(Cc2c(N)cccc2Cl)C(=O)c2cc(C(F)(F)F)n[nH]2)C1 (stereo not drawn) [Example 237, N-(2-amino-6-chlorobenzyl)-3-(trifluoromethyl)-N-(2-(3-methoxypiperidin-1-yl)ethyl)-1H-pyrazole-5-carboxamide] | 100
CC1CCCN(CCN(Cc2ccccc2Cl)C(=O)c2cc(C(F)(F)F)n[nH]2)C1 (stereo not drawn) [Example 191, N-(2-chlorobenzyl)-3-(trifluoromethyl)-N-(2-(3-methylpiperidin-1-yl)ethyl)-1H-pyrazole-5-carboxamide] | 100
CCN(CC)CCN(Cc1ccc(F)cc1Cl)C(=O)c1cc(C(F)(F)F)n[nH]1 [Example 170, N-(2-chloro-4-fluorobenzyl)-N-(2-(diethylamino)ethyl)-3-(trifluoromethyl)-1H-pyrazole-5-carboxamide] | 100
CC1CCCCN1CCN(Cc1ccccc1Cl)C(=O)c1cc(C(F)(F)F)n[nH]1 (stereo not drawn) [Example 192, N-(2-chlorobenzyl)-3-(trifluoromethyl)-N-(2-(2-methylpiperidin-1-yl)ethyl)-1H-pyrazole-5-carboxamide] | 100
O=C(c1cc(C(F)(F)F)n[nH]1)N(CCN1CCCCCC1)Cc1cccc([N+](=O)[O-])c1Cl [Example 210, N-(2-chloro-3-nitrobenzyl)-N-(2-(azepan-1-yl)ethyl)-3-(trifluoromethyl)-1H-pyrazole-5-carboxamide] | 100
Nc1cccc(CN(CCN2CCCCCC2)C(=O)c2cc(C(F)(F)F)n[nH]2)c1F [Example 216, N-(3-amino-2-fluorobenzyl)-N-(2-(azepan-1-yl)ethyl)-3-(trifluoromethyl)-1H-pyrazole-5-carboxamide] | 100

Other lines, results leading:

Max. Resp. [%] | SMILES
80 | O=C(c1cc(Cl)n[nH]1)N(Cc1cccc2[nH]c(=O)sc12)CC1CCC1 [Example 9, 3-Chloro-N-(cyclobutylmethyl)-N-((2-oxo-2,3-dihydrobenzo[d]thiazol-7-yl)methyl)-1H-pyrazole-5-carboxamide]
115 | CCN1CCN(CCN(Cc2ccccc2F)C(=O)c2cc(C(F)(F)F)n[nH]2)CC1 [Example 106]
53 | CCN(CCN(Cc1ccccc1Cl)C(=O)c1cc(C(F)(F)F)n[nH]1)C(C)C [Example 204, N-(2-chlorobenzyl)-N-(2-(ethyl-isopropylamino)ethyl)-3-(trifluoromethyl)-1H-pyrazole-5-carboxamide]
100 | O=C(c1cc(C(F)(F)F)n[nH]1)N(CCN1CCCCCC1)Cc1cccc2nc[nH]c12 [Example 208, N-((1H-benzo[d]imidazol-7-yl)methyl)-N-(2-(azepan-1-yl)ethyl)-3-(trifluoromethyl)-1H-pyrazole-5-carboxamide]
100 | O=C(c1cc(C(F)(F)F)n[nH]1)N(CCN1CCCCCC1)Cc1ccccc1F [Example 197, N-(2-fluorobenzyl)-N-(2-(azepan-1-yl)ethyl)-3-(trifluoromethyl)-1H-pyrazole-5-carboxamide]
73 | O=C(c1cc(C(F)(F)F)n[nH]1)N(CCC1CCSCC1)Cc1c(F)cccc1F [Example 84]
39 | N#Cc1cc(C(=O)N(Cc2ccc(O)cc2F)CC2CCC2)[nH]n1 [Example 2, 3-CYANO-N-(CYCLOBUTYLMETHYL)-N-(2-FLUORO-4-HYDROXYBENZYL)-1H-PYRAZOLE-5-CARBOXAMIDE]
109 | O=C(c1cc(C(F)(F)F)n[nH]1)N(CCC1CCOC1)Cc1ccc(O)cc1F (stereo not drawn) [Example 34]
60 | CC(CN(Cc1c(N)cccc1Cl)C(=O)c1cc(C(F)(F)F)n[nH]1)N1CCCC1 (stereo not drawn) [Example 221, N-(2-amino-6-chlorobenzyl)-3-(trifluoromethyl)-N-(2-(pyrrolidin-1-yl)propyl)-1H-pyrazole-5-carboxamide]
100 | Nc1cccc(Cl)c1CN(CCN1CCCC(O)C1)C(=O)c1cc(C(F)(F)F)n[nH]1 (stereo not drawn) [Example 225, N-(2-amino-6-chlorobenzyl)-3-(trifluoromethyl)-N-(2-(3-hydroxypiperidin-1-yl)ethyl)-1H-pyrazole-5-carboxamide]
91 | Nc1cccc(CN(CCN2CCS(=O)(=O)CC2)C(=O)c2cc(C(F)(F)F)n[nH]2)c1 [Example 112]
100 | CCN(CC)CCN(Cc1cc(Cl)ccc1Cl)C(=O)c1cc(C(F)(F)F)n[nH]1 [Example 168, N-(2,5-dichlorobenzyl)-N-(2-(diethylamino)ethyl)-3-(trifluoromethyl)-1H-pyrazole-5-carboxamide]
100 | O=C(c1cc(C(F)(F)F)n[nH]1)N(CCN1CCCCCC1)Cc1ccccc1Cl [Example 189, N-(2-chlorobenzyl)-N-(2-(azepan-1-yl)ethyl)-3-(trifluoromethyl)-1H-pyrazole-5-carboxamide]
75 | COCCCN(Cc1ccccc1F)C(=O)c1cc(C(F)(F)F)n[nH]1 [Example 23]
100 | O=C(c1cc(C(F)(F)F)n[nH]1)N(Cc1ccc(O)cc1F)C1CCCC1 [Example 132, N-(2-fluoro-4-hydroxybenzyl)-N-cyclopentyl-3-(trifluoromethyl)-1H-pyrazole-5-carboxamide]
84 | O=C(c1cc(C(F)(F)F)n[nH]1)N(CCN1CCS(=O)(=O)CC1)Cc1c(Cl)cccc1Cl [Example 110]
100 | O=C(c1cc(C(F)(F)F)n[nH]1)N(Cc1ccc(O)cc1F)C1CCCCC1 [Example 139, N-(2-fluoro-4-hydroxybenzyl)-N-cyclohexyl-3-(trifluoromethyl)-1H-pyrazole-5-carboxamide]
100 | O=C(c1cc(C(F)(F)F)n[nH]1)N(Cc1cccc2[nH]ccc12)CC1CCC1 [Example 6, N-((1H-indol-4-yl)methyl)-N-(cyclobutylmethyl)-3-(trifluoromethyl)-1H-pyrazole-5-carboxamide]
100 | O=C(c1cc(Br)n[nH]1)N(Cc1ccc(O)cc1Cl)CC1CCC1 [Example 125, N-(2-chloro-4-hydroxybenzyl)-3-bromo-N-(cyclobutylmethyl)-1H-pyrazole-5-carboxamide]
105 | O=C1CCC(CCN(Cc2ccccc2F)C(=O)c2cc(C(F)(F)F)n[nH]2)CC1 [Example 60, N-(2-fluorobenzyl)-N-(2-(4-oxocyclohexyl)ethyl)-3-(trifluoromethyl)-1H-pyrazole-5-carboxamide]

Same assay, conditions: read-out: PKM2 AC50; 2 nM PKM2, 75 μM ADP, 15 μM PEP, Kinase Glo

AC50 [nM] | SMILES
92 | O=C(c1cc(C2CC2)n[nH]1)N(Cc1ccc(O)cc1F)CC1CCC1 [Example 246]
213 | O=C(c1cc(C(F)(F)F)n[nH]1)N(Cc1cccc2[nH]ccc12)CC1CCC1 [Example 6, N-((1H-indol-4-yl)methyl)-N-(cyclobutylmethyl)-3-(trifluoromethyl)-1H-pyrazole-5-carboxamide]
